# Key:
# Beta-secretase 1 [1] = target: T1, Beta-secretase 1 (Homo sapiens, UniProt P56817); assay: Inhibition of human BACE-1
# [2] = target: T2, Amyloid-beta precursor protein (Homo sapiens, UniProt P05067); assay: Inhibition of amyloid beta (unknown origin) aggregation
# SH-SY5Y [3] = assay: Neuroprotective activity against human SH-SY5Y cells assessed as increase in cell viability at 25 uM relative to control; format: functional
# [4] = target: Glycogen synthase kinase-3 beta (Homo sapiens) (UniProt P49841); assay: Non-competitive inhibition of GSK3-beta (unknown origin) assessed as inhibition of tau hyperphosphorylation at 100 ug/ml incubated for 1 hr in presence of ATP by ADP-Glo kinase assay relative to control; details: dose 100.0 µg/ml
# Chain of Glycogen synthase kinase-3 beta (Homo sapiens) (P49841 whole entry, looked up): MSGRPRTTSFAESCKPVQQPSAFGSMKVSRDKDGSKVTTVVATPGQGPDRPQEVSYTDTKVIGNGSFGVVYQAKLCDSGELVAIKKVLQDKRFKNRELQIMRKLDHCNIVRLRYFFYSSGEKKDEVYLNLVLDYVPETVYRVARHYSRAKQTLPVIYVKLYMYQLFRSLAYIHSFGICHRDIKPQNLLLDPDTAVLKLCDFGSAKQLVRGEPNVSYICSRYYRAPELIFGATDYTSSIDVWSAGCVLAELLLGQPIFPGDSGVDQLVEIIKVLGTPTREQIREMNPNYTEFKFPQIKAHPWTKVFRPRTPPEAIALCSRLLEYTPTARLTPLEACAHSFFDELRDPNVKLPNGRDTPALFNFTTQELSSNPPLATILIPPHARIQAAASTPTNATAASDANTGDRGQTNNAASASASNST
# Beta-secretase 1 [5] = target: T1, Beta-secretase 1; assay: Inhibition of human BACE-1 at 500 uM relative to control
# [6] = target: T2, Amyloid-beta precursor protein; assay: Inhibition of self-induced amyloid beta (unknown origin) aggregation at 20 uM relative to control
# SH-SY5Y [7] = assay: Neuroprotective activity against amyloid beta treated human SH-SY5Y cells at 1 nM relative to control; format: functional
# Acetylcholinesterase [8] = target: T3, Acetylcholinesterase (Homo sapiens, UniProt P22303); assay: Inhibition of AChE (unknown origin)
# T3 sequence (P22303 whole entry): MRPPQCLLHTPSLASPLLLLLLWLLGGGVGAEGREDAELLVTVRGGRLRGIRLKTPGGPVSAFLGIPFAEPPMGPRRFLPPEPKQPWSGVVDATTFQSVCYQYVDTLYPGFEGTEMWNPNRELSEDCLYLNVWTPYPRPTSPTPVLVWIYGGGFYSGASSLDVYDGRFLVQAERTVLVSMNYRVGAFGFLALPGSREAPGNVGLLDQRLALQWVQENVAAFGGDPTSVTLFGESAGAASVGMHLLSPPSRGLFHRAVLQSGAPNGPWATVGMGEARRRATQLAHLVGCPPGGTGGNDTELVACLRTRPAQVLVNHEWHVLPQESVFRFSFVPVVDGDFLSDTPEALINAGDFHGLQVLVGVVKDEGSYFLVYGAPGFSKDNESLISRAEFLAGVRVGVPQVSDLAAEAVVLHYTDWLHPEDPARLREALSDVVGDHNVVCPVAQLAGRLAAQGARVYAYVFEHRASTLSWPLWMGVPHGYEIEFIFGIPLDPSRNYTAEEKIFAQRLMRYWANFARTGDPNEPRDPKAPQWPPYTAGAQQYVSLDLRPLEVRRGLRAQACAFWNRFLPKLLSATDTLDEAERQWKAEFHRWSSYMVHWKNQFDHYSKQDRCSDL
# Cholinesterase [9] = target: T4, Cholinesterase (Homo sapiens, UniProt P06276); assay: Inhibition of BuChE (unknown origin)
# T4 sequence (P06276 whole entry): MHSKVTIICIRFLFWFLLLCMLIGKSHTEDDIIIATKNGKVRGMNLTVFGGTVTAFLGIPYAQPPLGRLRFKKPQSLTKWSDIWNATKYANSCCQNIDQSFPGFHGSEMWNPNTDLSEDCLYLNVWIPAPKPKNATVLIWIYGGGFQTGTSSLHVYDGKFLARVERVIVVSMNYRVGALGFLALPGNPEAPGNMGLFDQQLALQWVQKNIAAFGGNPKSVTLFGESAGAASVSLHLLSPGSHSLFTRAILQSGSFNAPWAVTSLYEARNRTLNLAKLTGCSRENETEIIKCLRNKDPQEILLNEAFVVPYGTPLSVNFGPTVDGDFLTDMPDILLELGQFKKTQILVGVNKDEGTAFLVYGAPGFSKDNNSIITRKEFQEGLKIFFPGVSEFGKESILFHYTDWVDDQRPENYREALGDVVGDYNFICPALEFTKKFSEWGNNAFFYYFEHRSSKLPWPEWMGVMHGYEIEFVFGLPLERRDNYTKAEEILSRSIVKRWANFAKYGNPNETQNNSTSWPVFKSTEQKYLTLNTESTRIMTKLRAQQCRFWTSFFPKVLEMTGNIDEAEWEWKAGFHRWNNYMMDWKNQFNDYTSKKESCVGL
# [10] = target: T2, Amyloid-beta precursor protein; assay: Inhibition of amyloid beta (1 to 42) (unknown origin) fibril formation incubated for 1 hr by thioflavin-T fluorescence assay
# [11] = target: T5, Amine oxidase [flavin-containing] B (Homo sapiens, UniProt P27338); assay: Inhibition of human MAO-B
# T5 sequence (P27338 whole entry): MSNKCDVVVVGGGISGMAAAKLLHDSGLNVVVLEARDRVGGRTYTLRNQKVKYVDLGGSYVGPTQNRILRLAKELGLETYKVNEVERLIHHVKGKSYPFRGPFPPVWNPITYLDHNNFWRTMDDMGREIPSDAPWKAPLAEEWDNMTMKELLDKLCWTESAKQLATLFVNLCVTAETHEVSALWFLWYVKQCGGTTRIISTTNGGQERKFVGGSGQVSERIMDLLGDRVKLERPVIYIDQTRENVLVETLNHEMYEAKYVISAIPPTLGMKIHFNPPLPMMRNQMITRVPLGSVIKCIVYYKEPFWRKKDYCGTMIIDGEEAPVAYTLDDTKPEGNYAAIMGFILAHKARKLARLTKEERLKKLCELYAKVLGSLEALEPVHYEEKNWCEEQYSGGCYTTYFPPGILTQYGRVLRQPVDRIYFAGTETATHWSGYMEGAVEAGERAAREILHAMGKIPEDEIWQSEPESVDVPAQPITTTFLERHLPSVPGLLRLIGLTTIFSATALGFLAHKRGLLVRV
# Acetylcholinesterase [12] = target: T3, Acetylcholinesterase; assay: Inhibition of human recombinant AChE preincubated for 20 mins followed by substrate addition by Ellman's method
# [13] = target: T2, Amyloid-beta precursor protein; assay: Inhibition of self-induced amyloid beta (unknown origin) aggregation relative to control; details: concentration not given here
# Cholinesterase [14] = target: T4, Cholinesterase; assay: Inhibition of human serum BuChE preincubated for 20 mins followed by substrate addition by Ellman's method; format: cell-free
# Beta-secretase 1 [15] = target: T1, Beta-secretase 1; assay: Inhibition of BACE-1 (unknown origin) relative to control; details: concentration not given here
# Cholinesterase [16] = target: T4, Cholinesterase; assay: Inhibition of BuChE (unknown origin) relative to control; details: concentration not given here
# [17] = target: T2, Amyloid-beta precursor protein; assay: Inhibition of self-induced amyloid beta (unknown origin) aggregation at 3 uM relative to control
# HT-22 = assay: Neuroprotective activity against glutamate-induced cell death in mouse HT-22 cells at 10 uM relative to control; format: functional
# Acetylcholinesterase [18] = target: T3, Acetylcholinesterase; assay: Inhibition of AChE (unknown origin) relative to control; details: concentration not given here
# HepG2 = assay: Cytotoxicity against human HepG2 cells assessed as reduction in cell viability at 10 uM relative to control; format: functional
# Mus musculus [19] = assay: Anti-alzheimer activity in APP/PS1 mouse model assessed as reduction in cerebral levels of insoluble amyloid beta (1 to 40) at 40 mg/kg, po administered via oral gavage once a day for 12 weeks relative to control; format: functional; design: scale not given: the % may be the effect or the level left
# [20] = target: T2, Amyloid-beta precursor protein; assay: Inhibition of self-induced amyloid beta (unknown origin) aggregation
# Mus musculus [21] = assay: Antialzheimer activity in Tg2576 mouse model assessed as decrease in soluble amyloid beta level in brain homogenate at 20 mg/kg, ip administered daily for 30 days relative to control; format: functional; design: scale not given: the % may be the effect or the level left; details: time 30 day
# Beta-secretase 1 [22] = target: T1, Beta-secretase 1; assay: Inhibition of human BACE-1 at 100 uM relative to control
# Acetylcholinesterase [23] = target: T3, Acetylcholinesterase; assay: Inhibition of AChE (unknown origin) at 100 uM relative to control
# [24] = target: T2, Amyloid-beta precursor protein; assay: Inhibition of self-induced amyloid beta (unknown origin) aggregation at 100 uM relative to control
# [25] = Antioxidant activity of compound assessed as trolox equivalent preincubated for 15 mins followed by AAPH addition and measured for 90 mins by ORAC-FL assay; format: functional; details: time 105.0 min
# [26] = target: T2, Amyloid-beta precursor protein; assay: Inhibition of self-induced amyloid beta (1 to 42) (unknown origin) aggregation at 10 uM relative to control
# [27] = target: T5, Amine oxidase [flavin-containing] B; assay: Inhibition of MAO-B (unknown origin)
# Acetylcholinesterase [28] = target: T3, Acetylcholinesterase; assay: Inhibition of AChE (unknown origin) assessed as inhibition constant
# T1 sequence (P56817 whole entry): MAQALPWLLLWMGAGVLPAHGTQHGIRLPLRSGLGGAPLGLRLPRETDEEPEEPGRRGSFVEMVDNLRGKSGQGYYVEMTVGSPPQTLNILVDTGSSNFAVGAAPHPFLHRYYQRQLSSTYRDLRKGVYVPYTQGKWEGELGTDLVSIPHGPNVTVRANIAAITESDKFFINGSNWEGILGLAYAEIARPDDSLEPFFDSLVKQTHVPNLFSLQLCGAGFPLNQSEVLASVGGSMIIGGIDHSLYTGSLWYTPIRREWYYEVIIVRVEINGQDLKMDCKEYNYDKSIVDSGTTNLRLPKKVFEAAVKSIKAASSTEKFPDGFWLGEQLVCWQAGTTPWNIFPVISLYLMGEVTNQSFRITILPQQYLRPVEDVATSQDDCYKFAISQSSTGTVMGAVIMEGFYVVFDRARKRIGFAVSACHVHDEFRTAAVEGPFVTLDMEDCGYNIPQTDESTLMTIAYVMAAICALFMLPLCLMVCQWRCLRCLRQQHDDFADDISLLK
# T2 sequence (P05067 whole entry): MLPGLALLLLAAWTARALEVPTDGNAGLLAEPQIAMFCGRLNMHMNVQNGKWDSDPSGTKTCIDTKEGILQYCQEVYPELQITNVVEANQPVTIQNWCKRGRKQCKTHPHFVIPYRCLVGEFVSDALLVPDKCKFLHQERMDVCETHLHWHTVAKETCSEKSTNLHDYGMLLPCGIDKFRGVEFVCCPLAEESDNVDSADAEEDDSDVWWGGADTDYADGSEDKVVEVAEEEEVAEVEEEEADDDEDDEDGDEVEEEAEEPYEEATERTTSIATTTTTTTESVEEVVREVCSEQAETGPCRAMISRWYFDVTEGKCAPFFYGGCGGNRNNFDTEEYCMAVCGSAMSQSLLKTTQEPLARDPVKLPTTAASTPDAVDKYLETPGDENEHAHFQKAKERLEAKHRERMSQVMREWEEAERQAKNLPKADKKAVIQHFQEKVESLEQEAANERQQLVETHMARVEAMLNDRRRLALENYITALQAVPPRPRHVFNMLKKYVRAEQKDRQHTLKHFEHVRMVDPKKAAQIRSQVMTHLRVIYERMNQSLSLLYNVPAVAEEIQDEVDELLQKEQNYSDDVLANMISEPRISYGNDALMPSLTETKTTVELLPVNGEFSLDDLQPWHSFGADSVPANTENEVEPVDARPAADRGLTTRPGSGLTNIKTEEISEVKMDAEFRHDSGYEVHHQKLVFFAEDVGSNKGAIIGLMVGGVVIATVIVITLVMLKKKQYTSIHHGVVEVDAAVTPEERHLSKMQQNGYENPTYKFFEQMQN
smiles,measurement,setting,value
O=C(O[C@H]1Cc2c(O)cc(O)cc2O[C@H]1c1ccc(O)c(O)c1)c1cc(O)c(O)c(O)c1,IC50,Beta-secretase 1 [1],2400 nM
same,IC50,[2],3000 nM
COc1cc(-c2oc3cc(O)cc(O)c3c(=O)c2O)ccc1O [ISORHAMNETIN],Activity,SH-SY5Y [3],64%
COc1cc(-c2cc(=O)c3c(O)c([C@@H]4O[C@H](CO)[C@@H](O)[C@H](O)[C@H]4O)c(O)cc3o2)ccc1O,inhibition,[4],41.5%
C[C@@H]1O[C@@H](OC[C@H]2O[C@@H](Oc3cc(O)c4c(c3)O[C@H](c3ccc(O)cc3)CC4=O)[C@H](O)[C@@H](O)[C@@H]2O)[C@H](O)[C@H](O)[C@H]1O,inhibition,Beta-secretase 1 [5],79.3%
same,inhibition,[6],53%
CCN(CC)CCCCOc1cc(O)c2c(=O)c(-c3ccc(O)cc3)coc2c1,Activity,SH-SY5Y [7],75.7%
same,IC50,Acetylcholinesterase [8],100 nM
same,IC50,Cholinesterase [9],> 100000 nM
COc1cc(O)c2c(=O)c(O)c(-c3ccc(O)c(O)c3)oc2c1 [RHAMNETIN],IC50,[10],2300 nM
COc1ccc(/C=C2\COc3cc(OCCN4CCCCC4)ccc3C2=O)cc1,IC50,[11],25000 nM
CNC(=O)Oc1cccc(CN(C)CCCCCCCOc2cccc(-c3cc(=O)c4ccccc4o3)c2)c1,IC50,Acetylcholinesterase [12],0.52 nM
same,inhibition,[13],17.2%
same,IC50,Cholinesterase [14],63.7 nM
COc1ccc(-c2cc(=O)c3ccc(OCCN4CCN(CCO)CC4)cc3o2)cc1,IC50,Acetylcholinesterase [8],7.56 nM
same,IC50,Cholinesterase [9],21.6 nM
CN(C)Cc1c(O)c(O)c(O)c2c(=O)cc(-c3ccccc3)oc12,IC50,Acetylcholinesterase [8],82000 nM
COc1c(O)cc2oc3cc(O)c(CC=C(C)C)c(O)c3c(=O)c2c1CCC(C)(C)O [GARCINONE D],inhibition,Beta-secretase 1 [15],62.7%
same,inhibition,Cholinesterase [16],15%
same,inhibition,[17],34.9%
same,Activity,HT-22,45.4%
same,inhibition,Acetylcholinesterase [18],12.9%
O=c1cc(-c2ccc(O)c(O)c2)oc2cc(O)c([C@@H]3O[C@H](CO)[C@@H](O)[C@H](O)[C@H]3O)c(O)c12,inhibition,[4],48.4%
CN(C)CCNC(=O)COc1cc(O)c2c(=O)c(-c3ccc(O)cc3)coc2c1.Cl,inhibition,Cholinesterase [16],26%
same,IC50,Acetylcholinesterase [8],2750 nM
same,Activity,HepG2,1.53%
COc1ccc(-c2cc(=O)c3ccc(OCCN4CCC(C)CC4)cc3o2)cc1,IC50,Acetylcholinesterase [8],6.33 nM
same,IC50,Cholinesterase [9],24.7 nM
O=c1cc(-c2ccc(O)cc2)oc2cc(O)cc(O)c12 [APIGENIN],Activity,Mus musculus [19],20%
Cc1ccc(NCC[C@@H]2CCCN3CCCC[C@H]23)c2c(=O)c3ccccc3sc12,IC50,Acetylcholinesterase [8],5200 nM
same,IC50,Cholinesterase [9],460 nM
same,IC50,[20],840 nM
O=c1cc(-c2ccc(O)c(O)c2)oc2cc(O)cc(O)c12 [LUTEOLIN],Activity,Mus musculus [21],49%
CC(C)=CCc1cc2c(cc1O)O[C@@H](c1ccc(O)cc1)CC2=O,inhibition,Beta-secretase 1 [22],17%
same,inhibition,Acetylcholinesterase [23],34%
same,inhibition,[24],19%
COc1cc2c(cc1CC=C(C)C)C(=O)C[C@@H](c1ccc(O)cc1)O2,inhibition,Beta-secretase 1 [22],21%
same,inhibition,Acetylcholinesterase [23],81%
same,inhibition,[24],57%
CCN(CC)C(=O)Oc1ccc(-c2cc(=O)c3c(O)c(O)c(O)cc3o2)cc1,Activity,[25],10.3
same,IC50,Acetylcholinesterase [8],1200 nM
same,IC50,Cholinesterase [9],22100 nM
O=C(O[C@@H]1Cc2c(O)cc(O)cc2O[C@@H]1c1cc(O)c(O)c(O)c1)c1cc(O)c(O)c(O)c1 [EPIGALOCATECHIN GALLATE],IC50,[2],180 nM
Cc1ccc(NCC[C@@H]2CCCN3CCCC[C@H]23)c2c(=O)c3ccccc3oc12,IC50,Acetylcholinesterase [8],140 nM
same,IC50,Cholinesterase [9],370 nM
same,IC50,[20],13000 nM
COc1ccc(-c2cc(=O)c3ccc(OCCN4CCCC4)cc3o2)cc1,IC50,Acetylcholinesterase [8],105 nM
same,IC50,Cholinesterase [9],69.5 nM
COc1cc2oc3cccc(O)c3c(=O)c2c(O)c1CN(C)C,IC50,Acetylcholinesterase [8],100000 nM
Oc1cc(O)c2c(c1)O[C@H](c1ccc(O)c(O)c1)[C@H](O)C2 [(-)-EPICATECHIN],IC50,[2],5300 nM
O=c1c(O)c(-c2cc(O)c(O)c(O)c2)oc2cc(O)cc(O)c12,inhibition,[26],65.2%
O=c1c(O)c(-c2ccc(O)c(O)c2)oc2cc(O)cc(O)c12 [QUERCETIN],IC50,[10],2400 nM
COc1ccc(-c2cc(=O)c3ccc(OCCN4CCOCC4)cc3o2)cc1,IC50,Acetylcholinesterase [8],11 nM
same,IC50,Cholinesterase [9],54.3 nM
COc1ccc(/C=C2\COc3cc(OCCCCCN4CCCCC4)ccc3C2=O)cc1,IC50,[11],650 nM
O=c1c(O)c(-c2ccc(O)cc2O)oc2cc(O)cc(O)c12 [MORIN],IC50,[10],7400 nM
CCC(=O)CNC(=O)Nc1nc2ccc(-c3oc4c(OC)c(O)c(O)c(OC)c4c(=O)c3O)cc2s1,IC50,Acetylcholinesterase [8],100 nM
same,IC50,Beta-secretase 1 [1],2100 nM
same,IC50,Cholinesterase [9],0.32 nM
O=c1c(O)c(-c2ccc(O)c(O)c2)oc2cc(O)ccc12 [FISETIN],IC50,[10],12500 nM
CCN(CC)CCOc1ccc2c(=O)cc(-c3ccc(OC)cc3)oc2c1,IC50,Acetylcholinesterase [8],27.1 nM
same,IC50,Cholinesterase [9],49.1 nM
COc1cc(O)c2c(=O)c3cccc(O)c3oc2c1,IC50,[27],33000 nM
same,Ki,Acetylcholinesterase [28],53000 nM
COc1ccc(/C=C2\COc3cc(OCCCN4CCCCC4)ccc3C2=O)cc1,IC50,Acetylcholinesterase [8],3940 nM
same,IC50,Cholinesterase [9],9210 nM
same,IC50,[11],3440 nM
